Source: patent US20150183846A1, “HUMAN FUSION PROTEINS COMPRISING SINGLE CHAIN TNFALPHA AND TARGETING DOMAINS” (Scil Proteins GmbH, priority 2012, published 2015)
Entries after “also recorded” stand apart in the source; their conditions may differ.

Experiments:
L929 cells = assay: L929 apoptosis (cytotoxicity) assay of TNFalpha activity; format: cell-based; settings: actinomycin D sensitized cells, 24 h
Excerpt: The physiological TNFalpha-activity of an Affilin-scTNF-fusion protein has been determined using the L929 apoptosis assay (Flick et al., 1984 J. Immunol. Methods. 68:167-175). In this assay, the effector part of the fusion protein (scTNFalpha, three soluble TNFalpha monomers connected via peptide linkers) efficiently stimulates cell death in actinomycin D sensitized cells at EC50 values in the picomolar range.
Cells were resuspended in suitable medium containing FBS and antibiotics. A cell suspension of a density of 3.5×10^5 cells/ml in medium containing 2% FCS was seeded into the wells of a 96 well standard cell culture plate. After incubation, the culture medium was removed and medium containing 4% FBS, Actinomycin D and antibiotics was added to each well. […] After a further incubation of 24 h, the metabolic activity as a measure of cell survival was determined using WST-1 reagent (Roche). […] The quantitative evaluation is based on the relative potency against a mTNFalpha-standard.
In this embodiment, an L929 assay was used as activity assay versus mouse TNFalpha as internal standard (mTNFalpha in the figure). […] Potency has been determined in several independent assays and is determined by parallel line method with PLA2.0 software relative to the internal control mTNFalpha. […]

Wi38 cells = assay: Binding (staining) on vital Wi38 fibroblast cells; format: cell-based, human; settings: Wi38 cells (high ED-B), up to 10 nM, anti-TNFalpha-antibody detection
Procedure: (§1) ED-B is expressed in tumors and the matrix on embryonic cells. The binding of the cancer target-binding protein fused to scTNFalpha to the matrix of cell culture cells was compared to the binding of the control and non-targeting domain protein fused to scTNFalpha (64179). Different cell culture cells were analyzed, including normal human fetal lung fibroblast cells having high expression levels of ED-B (Wi38 cells), and normal human dermal fibroblasts having low level of ED-B (NHDF). To analyze the in vitro binding, 64177, 83563, 83564 and 64179 were investigated on vital Wi38 cells.
(§2) Fusion proteins (single concentration of 1, 5 and 10 nM) or control protein 64179 (1, 5 and 10 nM) were incubated (1 h, 37° C.) with Wi38 and NHDF cells (60,000 cells/ml; from ATCC), followed by fixation with methanol, blocking (5% Horse serum/PBS); incubation with an anti-TNFalpha-antibody (Peprotech 500-P64, 1:500) and additionally with a secondary Alexa488 conjugated antibody (obtained from Invitrogen A11008, 1:1000). The nuclei were stained with DAPI.

NHDF cells = assay: Binding (staining) on vital NHDF cells; format: cell-based, human; settings: NHDF cells (low ED-B), up to 10 nM
Procedure: as §1, §2

F9-tumor tissue = assay: Binding on F9 teratocarcinoma tumor slices; parameters: species or system mouse
Procedure: ED-B accumulates around neovascular structures, like tumor blood vessels (Tarli et al., 1999, Blood 94: 192-198). Different concentrations of fusion proteins were compared with respect to ED-B target binding on F9 teratocarcinoma slides. Slices of a thickness of 6 μm were fixed with ice cold absolute acetone. After blocking with 5% horse serum, slices were incubated with 1, 5 and 10 nM of fusion proteins 64177, 83563, 83564 and the non-ED-B targeted protein 64179, respectively. Fusion proteins were probed by anti-TNFalpha-antibody (Peprotech 500-P64, 1:500) and additional with a secondary Alexa488 conjugated antibody (Invitrogen, A11008, 1:1000). CD31 (PECAM-1) is a widely used endothelial cell marker. Therefore, vessels were stained by use of an anti-mouse CD31-antibody (10 μg/ml; Abcam, ab56299) and an Alexa594-conjugated secondary antibody.

MDA-MB 231 tumor = assay: In vivo efficacy study in breast cancer (MDA-MB 231) tumor bearing mice, combination with Lipodox; parameters: species or system mouse
Excerpt: The efficacy study is intended to analyze the effect of targeted fusion protein 83564 combined with a chemotherapeutic on the tumor size in a breast cancer model. As model system for the in vivo efficacy study, the breast cancer cell line MDA-MB 231 (ATCC® HTB-26™; patient derived model, obtained from ATCC) was used. Cells were implanted subcutaneously in the left flank of female immunodeficient NMRI nu/nu mice from Harlan. For this study, Lipodox was used as exemplary cytotoxic drug; any other cytotoxic agents could be used instead. The chemotherapeutic Lipodox from Sun Pharma Global FZE is composed of doxorubicin hydrochloride encapsulated in long circulating pegylated liposomes. It is indicated as monotherapy for the treatment of metastatic breast cancer with increased cardiac risk.
In order to show the efficacy of Affilin-scTNFalpha-fusion protein 83564, mice carrying an MDA-MB 231 tumor with an initial size between 50 mm^3 and 200 mm^3 were intravenously treated with 75 μg/kg/day 83564 combined with Lipodox at a dose of 1.5 mg/kg/day (closed squares in FIG. 8). As control substance, 75 μg/kg/day 64179 (Affilin-scTNFalpha-fusion protein without targeting) combined with Lipodox at a dose of 1.5 mg/kg/day was injected intravenously into separate mice (closed circles in FIG. 8). […] During the whole efficacy study, the relative tumor volume was analyzed.

[1] = In vivo toxicity study in naive CD1 mice, single intravenous dose; settings: i.v., mTNFalpha 470 μg/kg equimolar to 650 μg/kg 64177
Procedure: Two groups of 3 male and 3 female mice for each treatment dose were recruited. One group of 3 male and 3 female mice for each treatment dose was sacrificed 24 h after the intravenous administration to obtain information on acute TNFalpha mediated effects. […] Parameters that were analyzed are: clinical signs (local tolerance, systemic tolerance, mortality, behavior, external appearance, faeces), body weight, body temperature, food consumption, hematology, clinical chemistry, macroscopic post mortem findings, organ weights and histopathology of dedicated organs.

Row | Substance | activity of the scTNFalpha part relative to mouse TNFalpha internal standard (L929 cells) | staining of ED-B on vital Wi38 cells (Wi38 cells) | staining on vital NHDF cells (NHDF cells) | accumulation close to F9-tumor vessels (co-staining with anti-CD31) (F9-tumor tissue; 1 nM fusion protein) | binding on F9-tumor tissue slices (F9-tumor tissue; 1 nM, 5 nM and 10 nM) | relative tumor volume at day 28 (MDA-MB 231 tumor; 75 μg/kg/day fusion protein i.v. combined with Lipodox 1.5 mg/kg/day) [mm^3] | effect on tumor growth compared with the other groups (MDA-MB 231 tumor; fusion protein combined with Lipodox 1.5 mg/kg/day) | incidence and/or severity of toxic effects, mTNFalpha- versus 64177-treated animals [1]
1 | 64179: control fusion protein of a non-binding ubiquitin dimer (Ub2) and mouse scTNFalpha (SEQ ID NO: 16) [compound 64179, reference compound] | at least the same activity compared to the mouse TNFalpha | No unspecific staining; also recorded: not detectable | not detectable | no accumulation in F9-tumor vessels | not detected | 651 | had the effect on growth of breast cancer as Lipodox alone | –
2 | mTNFalpha: murine recombinant TNFalpha used as internal standard and reference item [reference compound] | – | – | – | – | – | – | – | generally more pronounced
